Legend:
[1] = biological target: Serine/threonine-protein kinase Nek3 (Homo sapiens) (UniProt P51956); settings: Compound concentration 1000.0 nM
[2] = biological target: Mitogen-activated protein kinase 4 (Homo sapiens) (UniProt P31152); settings: Compound concentration 1000.0 nM
[3] = biological target: Tyrosine-protein kinase Fyn (Homo sapiens) (UniProt P06241); settings: Compound concentration 1000.0 nM
[4] = system: Phosphatidylinositol 4,5-bisphosphate 3-kinase catalytic subunit alpha isoform (Homo sapiens), P42336 [E545A]; settings: Compound concentration 1000.0 nM
[5] = system: Tyrosine-protein kinase ABL1 (Homo sapiens), P00519 [M351T]; settings: Compound concentration 1000.0 nM
[6] = biological target: T1, Muscarinic acetylcholine receptor M2 (Homo sapiens) (UniProt P08172); settings: Compound concentration 10.0 uM
T1 sequence (whole entry): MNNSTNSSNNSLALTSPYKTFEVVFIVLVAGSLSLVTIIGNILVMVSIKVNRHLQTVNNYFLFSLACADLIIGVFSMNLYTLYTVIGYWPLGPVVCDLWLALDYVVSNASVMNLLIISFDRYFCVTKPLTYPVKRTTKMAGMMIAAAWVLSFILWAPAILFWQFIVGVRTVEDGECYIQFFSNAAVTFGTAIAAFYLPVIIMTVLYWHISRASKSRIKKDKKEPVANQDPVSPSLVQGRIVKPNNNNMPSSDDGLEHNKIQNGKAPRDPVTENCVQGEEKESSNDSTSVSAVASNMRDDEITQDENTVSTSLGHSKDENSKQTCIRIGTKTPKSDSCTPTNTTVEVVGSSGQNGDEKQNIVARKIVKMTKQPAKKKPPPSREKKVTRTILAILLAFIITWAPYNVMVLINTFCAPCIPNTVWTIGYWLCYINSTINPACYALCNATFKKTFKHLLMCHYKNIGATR

[7] = biological target: Serine/threonine-protein kinase ULK1 (Homo sapiens) (UniProt O75385); settings: Compound concentration 1000.0 nM
[8] = biological target: Phosphatidylinositol 4-kinase beta (Homo sapiens) (UniProt Q9UBF8); settings: Compound concentration 1000.0 nM
[9] = biological target: Ephrin type-A receptor 6 (Homo sapiens) (UniProt Q9UF33); settings: Compound concentration 1000.0 nM
[10] = biological target: LIM domain kinase 1 (Homo sapiens) (UniProt P53667); settings: Compound concentration 1000.0 nM
[11] = biological target: Ribosomal protein S6 kinase beta-1 (Homo sapiens) (UniProt P23443); settings: Compound concentration 1000.0 nM
[12] = biological target: Serine/threonine-protein kinase DCLK3 (Homo sapiens) (UniProt Q9C098); settings: Compound concentration 1000.0 nM
[13] = biological target: D(3) dopamine receptor (Homo sapiens) (UniProt P35462); settings: Compound concentration 10.0 uM
[14] = biological target: Serine/threonine-protein kinase 4 (Homo sapiens) (UniProt Q13043); settings: Compound concentration 1000.0 nM
[15] = biological target: Dual specificity protein kinase CLK4 (Homo sapiens) (UniProt Q9HAZ1); settings: Compound concentration 1000.0 nM
[16] = system: Tyrosine-protein kinase ABL1 (Homo sapiens), P00519 [Q252H]; settings: Compound concentration 1000.0 nM
[17] = biological target: Serine/threonine-protein kinase BRSK1 (Homo sapiens) (UniProt Q8TDC3); settings: Compound concentration 1000.0 nM
[18] = biological target: Phosphatidylinositol 4,5-bisphosphate 3-kinase catalytic subunit gamma isoform (Homo sapiens) (UniProt P48736); settings: Compound concentration 1000.0 nM
[19] = biological target: Calcium/calmodulin-dependent protein kinase kinase 2 (Homo sapiens) (UniProt Q96RR4); settings: Compound concentration 1000.0 nM
[20] = biological target: Serine/threonine-protein kinase tousled-like 1 (Homo sapiens) (UniProt Q9UKI8); settings: Compound concentration 1000.0 nM
[21] = biological target: SRSF protein kinase 2 (Homo sapiens) (UniProt P78362); settings: Compound concentration 1000.0 nM
[22] = biological target: Serine/threonine-protein kinase NIM1 (Homo sapiens) (UniProt Q8IY84); settings: Compound concentration 1000.0 nM
[23] = biological target: Ephrin type-A receptor 2 (Homo sapiens) (UniProt P29317); settings: Compound concentration 1000.0 nM
[24] = biological target: Mitotic checkpoint serine/threonine-protein kinase BUB1 (Homo sapiens) (UniProt O43683); settings: Compound concentration 1000.0 nM
[25] = biological target: Cyclin-dependent kinase 4 (Homo sapiens) (UniProt P11802); settings: Compound concentration 1000.0 nM
[26] = biological target: Protein kinase C iota type (Homo sapiens) (UniProt P41743); settings: Compound concentration 1000.0 nM
[27] = biological target: Serine/threonine-protein kinase PAK 6 (Homo sapiens) (UniProt Q9NQU5); settings: Compound concentration 1000.0 nM
[28] = system: Tyrosine-protein kinase ABL1 (Homo sapiens), P00519 [H396P]; settings: Compound concentration 1000.0 nM
[29] = biological target: Tyrosine-protein kinase Lyn (Homo sapiens) (UniProt P07948); settings: Compound concentration 1000.0 nM
[30] = system: Mast/stem cell growth factor receptor Kit (Homo sapiens), P10721 [V559D,V654A]; settings: Compound concentration 1000.0 nM
[31] = biological target: Bone morphogenetic protein receptor type-2 (Homo sapiens) (UniProt Q13873); settings: Compound concentration 1000.0 nM
[32] = biological target: Death-associated protein kinase 3 (Homo sapiens) (UniProt O43293); settings: Compound concentration 1000.0 nM
[33] = biological target: Dual specificity mitogen-activated protein kinase kinase 7 (Homo sapiens) (UniProt O14733); settings: Compound concentration 1000.0 nM
[34] = biological target: Cyclin-dependent kinase 9 (Homo sapiens) (UniProt P50750); settings: Compound concentration 1000.0 nM
[35] = biological target: D(2) dopamine receptor (Homo sapiens) (UniProt P14416); settings: Compound concentration 10.0 uM
[36] = biological target: Serine/threonine-protein kinase pim-1 (Homo sapiens) (UniProt P11309); settings: Compound concentration 1000.0 nM
[37] = biological target: STE20/SPS1-related proline-alanine-rich protein kinase (Homo sapiens) (UniProt Q9UEW8); settings: Compound concentration 1000.0 nM
[38] = biological target: Casein kinase I isoform delta (Homo sapiens) (UniProt P48730); settings: Compound concentration 1000.0 nM
[39] = biological target: Histamine H2 receptor (Homo sapiens) (UniProt P25021); assay: H2 (h) Eurofins-Cerep Cellular and Nuclear Receptor Functional Assays; settings: Compound concentration 10.0 uM
Histamine H2 receptor (Homo sapiens), sequence (P25021 whole entry): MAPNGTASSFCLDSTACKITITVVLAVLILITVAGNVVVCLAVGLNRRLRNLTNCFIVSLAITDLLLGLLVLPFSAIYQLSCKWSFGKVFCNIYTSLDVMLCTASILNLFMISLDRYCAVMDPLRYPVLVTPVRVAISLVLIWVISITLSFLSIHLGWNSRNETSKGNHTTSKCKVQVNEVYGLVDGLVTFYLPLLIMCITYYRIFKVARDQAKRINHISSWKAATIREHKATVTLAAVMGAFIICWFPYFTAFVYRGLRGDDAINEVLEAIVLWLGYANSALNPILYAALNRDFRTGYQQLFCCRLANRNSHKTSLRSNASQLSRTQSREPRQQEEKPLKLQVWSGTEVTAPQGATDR

Serine/threonine-protein kinase DCLK3 (Homo sapiens), sequence (Q9C098 whole entry): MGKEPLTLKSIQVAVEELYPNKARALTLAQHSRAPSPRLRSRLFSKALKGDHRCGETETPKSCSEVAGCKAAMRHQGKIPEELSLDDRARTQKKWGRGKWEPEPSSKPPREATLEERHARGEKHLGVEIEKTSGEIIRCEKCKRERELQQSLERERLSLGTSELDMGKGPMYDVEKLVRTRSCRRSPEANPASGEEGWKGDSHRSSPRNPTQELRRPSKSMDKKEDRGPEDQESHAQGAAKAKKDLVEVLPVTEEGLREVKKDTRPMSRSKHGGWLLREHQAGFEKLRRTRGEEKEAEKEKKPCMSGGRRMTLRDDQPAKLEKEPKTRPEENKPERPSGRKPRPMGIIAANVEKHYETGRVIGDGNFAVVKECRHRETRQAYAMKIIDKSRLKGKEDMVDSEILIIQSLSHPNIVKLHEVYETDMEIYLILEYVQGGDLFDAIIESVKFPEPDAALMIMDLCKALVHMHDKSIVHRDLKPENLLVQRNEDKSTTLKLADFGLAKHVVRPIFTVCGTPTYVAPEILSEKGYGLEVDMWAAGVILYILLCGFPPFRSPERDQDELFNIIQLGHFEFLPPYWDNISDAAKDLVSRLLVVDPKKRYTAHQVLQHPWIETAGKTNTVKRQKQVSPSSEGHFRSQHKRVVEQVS
Serine/threonine-protein kinase pim-1 (Homo sapiens), sequence (P11309 whole entry, looked up): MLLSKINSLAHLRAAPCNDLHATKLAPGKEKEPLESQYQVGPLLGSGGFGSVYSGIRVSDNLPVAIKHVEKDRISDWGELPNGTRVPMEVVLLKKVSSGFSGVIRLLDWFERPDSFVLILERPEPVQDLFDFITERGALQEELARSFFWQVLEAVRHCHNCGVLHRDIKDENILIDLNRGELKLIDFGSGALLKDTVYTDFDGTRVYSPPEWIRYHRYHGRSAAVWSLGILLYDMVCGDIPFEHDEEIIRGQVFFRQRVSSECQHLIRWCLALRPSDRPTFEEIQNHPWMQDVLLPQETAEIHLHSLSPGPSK
Ephrin type-A receptor 6 (Homo sapiens), sequence (Q9UF33 whole entry, the tested form may be a part): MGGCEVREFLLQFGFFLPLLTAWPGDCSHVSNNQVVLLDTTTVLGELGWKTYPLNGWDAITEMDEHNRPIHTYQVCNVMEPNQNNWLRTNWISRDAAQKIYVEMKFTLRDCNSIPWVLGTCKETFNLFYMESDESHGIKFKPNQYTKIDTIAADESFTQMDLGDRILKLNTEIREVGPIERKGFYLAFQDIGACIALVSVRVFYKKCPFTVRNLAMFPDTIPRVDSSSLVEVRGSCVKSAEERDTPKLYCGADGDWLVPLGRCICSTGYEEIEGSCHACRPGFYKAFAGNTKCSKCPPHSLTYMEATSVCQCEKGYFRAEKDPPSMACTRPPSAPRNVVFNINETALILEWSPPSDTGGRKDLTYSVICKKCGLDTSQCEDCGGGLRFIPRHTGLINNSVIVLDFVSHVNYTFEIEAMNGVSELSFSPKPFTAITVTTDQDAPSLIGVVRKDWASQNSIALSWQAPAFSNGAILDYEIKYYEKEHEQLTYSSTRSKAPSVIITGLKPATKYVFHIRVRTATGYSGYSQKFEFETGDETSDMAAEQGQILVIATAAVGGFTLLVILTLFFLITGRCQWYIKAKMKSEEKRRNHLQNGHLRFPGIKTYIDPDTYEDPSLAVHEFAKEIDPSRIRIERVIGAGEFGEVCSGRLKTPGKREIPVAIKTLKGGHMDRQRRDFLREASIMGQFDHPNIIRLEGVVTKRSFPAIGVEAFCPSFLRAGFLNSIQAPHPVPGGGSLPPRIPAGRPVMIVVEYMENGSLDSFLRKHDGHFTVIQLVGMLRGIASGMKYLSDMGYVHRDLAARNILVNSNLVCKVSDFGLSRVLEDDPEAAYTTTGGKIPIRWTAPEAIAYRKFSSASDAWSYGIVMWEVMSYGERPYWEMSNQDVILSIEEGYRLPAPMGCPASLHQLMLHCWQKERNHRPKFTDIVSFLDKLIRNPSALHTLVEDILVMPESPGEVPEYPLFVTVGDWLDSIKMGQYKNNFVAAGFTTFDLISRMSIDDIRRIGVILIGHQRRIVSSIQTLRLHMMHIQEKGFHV
SRSF protein kinase 2 (Homo sapiens), sequence (P78362 whole entry, looked up): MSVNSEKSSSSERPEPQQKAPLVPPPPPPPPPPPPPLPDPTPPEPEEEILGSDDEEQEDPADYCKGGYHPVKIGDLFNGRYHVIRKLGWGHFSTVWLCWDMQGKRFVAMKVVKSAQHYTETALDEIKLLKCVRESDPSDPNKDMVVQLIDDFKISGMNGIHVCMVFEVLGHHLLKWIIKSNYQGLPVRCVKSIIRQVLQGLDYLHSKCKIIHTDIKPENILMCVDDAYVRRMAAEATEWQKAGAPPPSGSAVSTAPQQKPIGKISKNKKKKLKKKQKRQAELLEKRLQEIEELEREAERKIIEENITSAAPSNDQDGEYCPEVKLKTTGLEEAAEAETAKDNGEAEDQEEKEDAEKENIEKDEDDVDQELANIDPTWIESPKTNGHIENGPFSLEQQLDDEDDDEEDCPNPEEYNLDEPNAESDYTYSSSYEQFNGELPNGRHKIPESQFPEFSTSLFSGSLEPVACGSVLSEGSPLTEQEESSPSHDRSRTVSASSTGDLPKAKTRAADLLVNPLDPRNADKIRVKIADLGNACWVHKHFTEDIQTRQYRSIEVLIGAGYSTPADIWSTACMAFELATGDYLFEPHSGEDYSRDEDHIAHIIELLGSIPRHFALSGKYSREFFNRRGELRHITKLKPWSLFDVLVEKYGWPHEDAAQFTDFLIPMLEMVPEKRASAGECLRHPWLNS
Mitotic checkpoint serine/threonine-protein kinase BUB1 (Homo sapiens), sequence (O43683 whole entry, looked up): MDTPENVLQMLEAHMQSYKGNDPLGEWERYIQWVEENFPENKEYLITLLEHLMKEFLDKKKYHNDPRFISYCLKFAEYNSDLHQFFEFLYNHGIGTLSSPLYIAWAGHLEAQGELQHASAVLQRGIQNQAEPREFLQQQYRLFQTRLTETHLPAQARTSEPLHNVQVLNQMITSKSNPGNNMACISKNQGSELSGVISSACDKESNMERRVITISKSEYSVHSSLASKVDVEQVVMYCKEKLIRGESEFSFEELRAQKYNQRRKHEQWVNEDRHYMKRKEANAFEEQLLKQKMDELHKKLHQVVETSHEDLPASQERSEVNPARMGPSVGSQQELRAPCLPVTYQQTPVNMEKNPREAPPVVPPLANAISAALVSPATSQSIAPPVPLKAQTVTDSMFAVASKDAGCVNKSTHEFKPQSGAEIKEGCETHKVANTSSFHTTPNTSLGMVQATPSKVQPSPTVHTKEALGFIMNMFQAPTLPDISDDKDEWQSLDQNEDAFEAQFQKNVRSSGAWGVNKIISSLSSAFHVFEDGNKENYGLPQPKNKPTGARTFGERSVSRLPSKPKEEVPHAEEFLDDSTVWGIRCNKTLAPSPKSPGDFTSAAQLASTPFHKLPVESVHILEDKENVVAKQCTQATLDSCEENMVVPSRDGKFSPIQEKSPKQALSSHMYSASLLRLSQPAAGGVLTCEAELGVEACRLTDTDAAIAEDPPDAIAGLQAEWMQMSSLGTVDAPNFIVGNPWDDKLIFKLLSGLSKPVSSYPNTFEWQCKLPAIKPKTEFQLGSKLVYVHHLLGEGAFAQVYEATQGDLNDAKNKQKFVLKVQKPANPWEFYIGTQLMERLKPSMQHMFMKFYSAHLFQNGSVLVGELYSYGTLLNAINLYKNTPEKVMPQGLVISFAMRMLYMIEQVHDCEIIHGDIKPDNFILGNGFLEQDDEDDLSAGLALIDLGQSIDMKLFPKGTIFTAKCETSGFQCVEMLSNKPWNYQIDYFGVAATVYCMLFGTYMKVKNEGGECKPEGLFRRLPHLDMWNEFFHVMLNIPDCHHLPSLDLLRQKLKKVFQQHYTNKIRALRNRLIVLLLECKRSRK
Protein kinase C iota type (Homo sapiens), sequence (P41743 whole entry): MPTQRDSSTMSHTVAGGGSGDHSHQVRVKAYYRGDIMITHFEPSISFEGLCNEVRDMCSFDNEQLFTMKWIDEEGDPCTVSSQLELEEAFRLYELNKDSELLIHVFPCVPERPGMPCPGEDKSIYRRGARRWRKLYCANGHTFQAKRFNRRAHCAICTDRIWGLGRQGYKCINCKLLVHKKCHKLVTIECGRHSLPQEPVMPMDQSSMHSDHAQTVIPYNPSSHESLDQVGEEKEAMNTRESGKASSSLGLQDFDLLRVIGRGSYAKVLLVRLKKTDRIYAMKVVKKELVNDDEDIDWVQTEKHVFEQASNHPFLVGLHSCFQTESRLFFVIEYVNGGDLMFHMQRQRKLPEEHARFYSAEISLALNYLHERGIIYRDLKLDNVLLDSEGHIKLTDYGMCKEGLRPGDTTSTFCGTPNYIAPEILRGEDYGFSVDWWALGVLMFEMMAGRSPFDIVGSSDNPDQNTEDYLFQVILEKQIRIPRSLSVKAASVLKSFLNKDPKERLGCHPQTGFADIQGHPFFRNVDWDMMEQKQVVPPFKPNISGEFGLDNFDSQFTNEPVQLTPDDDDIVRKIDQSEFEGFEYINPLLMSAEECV
Cyclin-dependent kinase 4 (Homo sapiens), sequence (P11802 whole entry): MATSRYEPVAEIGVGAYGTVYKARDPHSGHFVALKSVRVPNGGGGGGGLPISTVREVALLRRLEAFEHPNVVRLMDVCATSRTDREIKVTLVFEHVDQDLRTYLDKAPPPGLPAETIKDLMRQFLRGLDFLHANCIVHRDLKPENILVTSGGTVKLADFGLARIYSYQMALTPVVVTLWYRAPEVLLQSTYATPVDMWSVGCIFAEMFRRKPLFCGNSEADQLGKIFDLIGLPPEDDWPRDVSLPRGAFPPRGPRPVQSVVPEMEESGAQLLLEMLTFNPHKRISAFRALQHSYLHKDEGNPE

O=C(N1CCS(=O)(=O)CC1)N1C[C@H](c2ccc(OC(F)(F)F)cc2)C[C@H](c2nc(C3CC3)no2)C1 [BAY-386]
residual activity [1]: 100%
residual activity [2]: 100%
residual activity [3]: 80%
residual activity [4]: 100%
residual activity [5]: 100%
inhibition [6]: -9.14%
residual activity [7]: 100%
residual activity [8]: 100%
residual activity [9]: 100%
residual activity [10]: 100%
residual activity [11]: 100%
residual activity [12]: 100%
inhibition [13]: 5.09%
residual activity [14]: 100%
residual activity [15]: 100%
residual activity [16]: 100%
residual activity [17]: 100%
residual activity [18]: 100%
residual activity [19]: 100%
residual activity [20]: 94%
residual activity [21]: 100%
residual activity [22]: 93%
residual activity [23]: 100%
residual activity [24]: 100%
residual activity [25]: 96%
residual activity [26]: 100%
residual activity [27]: 100%
residual activity [28]: 100%
residual activity [29]: 85%
residual activity [30]: 100%
residual activity [31]: 100%
residual activity [32]: 100%
residual activity [33]: 100%
residual activity [34]: 100%
inhibition [35]: -0.71%
residual activity [36]: 100%
residual activity [37]: 100%
residual activity [38]: 100%
% Inhibition of Control Agonist Response (Mean n=2) [39]: 9.6%
% of Control Agonist Response (Mean n=2) [39]: -0.7%

Cc1noc([C@H]2C[C@@H](c3ccc(C(F)(F)F)cc3)CN(C(=O)N3CCS(=O)(=O)C3)C2)n1 [BAY-448]
residual activity [1]: 73%
residual activity [2]: 100%
residual activity [3]: 94%
residual activity [4]: 64%
residual activity [5]: 84%
inhibition [6]: 39.5%
residual activity [7]: 85%
residual activity [8]: 93%
residual activity [9]: 100%
residual activity [10]: 100%
residual activity [11]: 75%
residual activity [12]: 100%
inhibition [13]: -2.97%
residual activity [14]: 100%
residual activity [15]: 83%
residual activity [16]: 100%
residual activity [17]: 100%
residual activity [18]: 85%
residual activity [19]: 100%
residual activity [20]: 100%
residual activity [21]: 100%
residual activity [22]: 100%
residual activity [23]: 100%
residual activity [24]: 100%
residual activity [25]: 100%
residual activity [26]: 100%
residual activity [27]: 100%
residual activity [28]: 100%
residual activity [29]: 100%
residual activity [30]: 100%
residual activity [31]: 100%
residual activity [32]: 100%
residual activity [33]: 100%
residual activity [34]: 100%
inhibition [35]: -0.15%
residual activity [36]: 100%
residual activity [37]: 95%
residual activity [38]: 100%
% Inhibition of Control Agonist Response (Mean n=2) [39]: -2.8%
% of Control Agonist Response (Mean n=2) [39]: 2.6%
